Earlier results on one compound are cited in US8507652B2, “Pharmaceutical composition, dressing and method for treating skin lesion, intermediate composition and process for preparing said dressing, and use of cerium salt associated with a collagen matrix” (priority 2008, dated 2013).

The structures appear in SMILES notation.

In one series the test system is interleucin-6. The following applies: lesions treated with cerium nitrate.
In a further series the test system is 39 bacteria species. The following applies: 39 bacteria species studied, in vitro.
The next series has as its system TNF-[…]. Particulars: lesions treated with cerium nitrate.

On to `O=[N+]([O-])[O-].O=[N+]([O-])[O-].O=[N+]([O-])[O-].[Ce+3]` [cerium nitrate], for which, in the series with interleucin-6, the interleucin-6 level result is “increase”. Further, the concentration inhibiting growth in the series with 39 bacteria species is on record as ~0.0004 M. In addition, in the series on TNF-[…], the “TNF-[…] level” value is “reduction”.
